Assay results reported in US20240400572A1, “COMPOUNDS AND METHODS FOR TREATING CANCERS THAT ARE MGMT DEFICIENT REGARDLESS OF MMR STATUS” (Yale University, priority 2021, published 2024).
Entries after “also recorded” stand apart in the source; their conditions may differ. Read-outs that look alike come from different tables or passages of the source.

Columns and labels:
[1] = tested on: four isogenic LN229 glioblastoma cell lines (MGMT+/−, MMR+/−); assay type: cell-based; conditions: for cytotoxicity and selectivity in the four isogenic cell lines (in words): LN229 MGMT+/−, MMR+/− cells; for therapeutic index: IC50 in MGMT proficient and MMR proficient cells divided by IC50 in MGMT deficient and MMR deficient cells (FIG. 8)
Description: Short-term Cell Viability Assay. Cells were seeded in 96-well plates at 1000 or 2000 cells/well and allowed to adhere at 23° C. for 60 min and then incubated overnight at 37° C. Cells were treated with indicated concentrations of compounds in triplicate for 4-6 days prior to fixation with 3.7% paraformaldehyde and nuclear staining with 1 μg/mL Hoechst 33342 dye. Cells were imaged on a Cytation 3 imaging reader (BioTek) and quantified using CellProfiler software.
Statistical analysis. Statistical analysis was performed using GraphPad Prism software. Data are presented as mean or median±SD or SEM as indicated. For in vitro short-term growth delay experiments, IC50 values were determined from the nonlinear regression equation, [inhibitor] vs normalized response with variable slope. For micronuclei assays, comparisons were made with one-way ANOVA and Sidak correction for multiple comparisons. For xenograft growth delay experiments, comparisons were made with Mann-Whitney test (for comparison of 2 groups) or Kruskal-Wallis test with FDR-adjusted p-values with Q set to 5% (for comparison of ≥3 groups). For xenograft survival analysis, Kaplan-Meier analysis was used to evaluate survival rate based on death or removal from study when body weight loss exceeded 20% of initial body weight
We synthesized the imidazotetrazine 4a (KL-50) and the triazene 4b (KL-85), as vehicles to deliver 2-fluoroethyl diazonium (4c), and a series of related agents to probe structure-activity relationships in tissue culture (FIG. Z1, D and F). The 2-fluoropropyl- and 3-fluoropropyl-triazenes (10 and 11, respectively) were prepared by diazotization of 4-aminoimdazole-5-carboxamide, followed by the addition of the respective amine. All other triazenes were prepared according to literature procedures. We evaluated the cytotoxicity of our compounds in short-term cell viability assays against four isogenic LN229 glioblastoma cell lines engineered to be proficient or deficient in MGMT and/or MMR activity, using short hairpin RNAs (shRNAs) targeting MSH2 (referred to as MGMT+/−, MMR+/− cells hereafter; FIG. ZS2A). This approach allowed us to rapidly and rigorously interrogate the relationship between MGMT and MMR status and compound activity.
The compounds 10a through 10l and TMZ were tested in the short-term cell viability assay.

[2] = tested on: CHK1 and CHK2 phosphorylation in LN229 MGMT+/−, MMR+/− cells; test: Western blotting of checkpoint kinase phosphorylation; assay type: cell-based, human; conditions: 20 μM, 24 or 48 h
Description: Western Blotting. For phospho-protein analysis experiments, cells were lysed in 1× RIPA buffer (Cell Signaling Technology, #9806) supplemented with 1× Protease Inhibitor Cocktail (Roche) and 1× PhosSTOP Phosphatase Inhibitor Cocktail (Sigma). For all other western blot analyses, cells were lysed in lysis buffer (50 mM HEPES, 250 mM NaCl, 5 mM EDTA, 1% NP-40) supplemented with 1× Protease Inhibitor Cocktail (Roche). The de-ubiquitination inhibitor N-ethylmaleimide (NEM, 4 mM) was added in FANCD2 ubiquitination analysis experiments. Proteins were separated using NuPAGE 4-12% Bis-Tris or 3-8% Tris-Acetate Gels (Invitrogen) and transferred to Immobilon-P PVDF membrane (Millipore) for western blotting. Membranes were blocked with 5% milk in TBS-T for 1 h prior to primary antibody addition overnight at 4° C. […] Where shown, bands were quantified using ImageJ software.

[3] = tested on: LN229 MGMT−/MMR− intracranial tumors; test: Intracranial tumor study; assay type: in vivo, mouse; conditions: 25 mg/kg IP M-F×1 week as printed
[4] = tested on: LN229 WT and LN229-MSH2^− flank tumors; test: Xenograft Experiments (FIG. 11); assay type: in vivo, mouse; conditions: 5 mg/kg gavage, Mondays, Wednesdays and Fridays for 3 weeks
Description: Xenograft Experiments (FIG. 11): All animal studies were approved by the Institutional Animal Use and Care Committee and performed in accordance with the Guide for the Care and Use of Laboratory Animals. LN229 WT and LN229-MSH2^− cell lines were maintained in DMEM media supplemented with 10% fetal bovine serum. Three-four-week-old female athymic nude Foxnnu mice were obtained from Envigo and each mouse was inoculated subcutaneously with tumor cells (4.5-5×10^6) in 0.1 ml of PBS with Matrigel (1:1). Wild type cells were injected on the right flank and mutant cells were injected on the left flank. The tumors were then grown to a mean size of approximately 50-100 mm3 and the mice were then split into groups and treated as detailed in FIG. 7. Gavage doses of 5 mg/kg of KL-50 or TMZ were prepared by diluting stocks in DMSO with 10% cyclodextrin. Compound was administered each day of dosing at a volume of 100 μL/mouse. Mice were treated for 3 weeks with dosing on Mondays, Wednesdays and Fridays. Tumors were measured 3 times a week during treatment and during the washout period of 2 weeks. Xenograft tumors were measured by calipers and volume was calculated using the equation for ellipsoid volume: Volume=0.523×(length)×(width)^2. Statistical Analysis: Analysis of variance (ANOVA) was used to test for significant differences between groups. Post-hoc Bonferroni multiple comparison test analysis was used to determine significant differences among means. All statistical analysis was accomplished using Graph Pad Prism 8.2.0 software.

SMILES	cytotoxicity and selectivity in the four isogenic cell lines (in words) ([1]; listed as N-methyl KL50)	therapeutic index [1]	selectivity for MGMT-deficient cells ([1]; LN229 MGMT+ versus MGMT− cells) [fold]	cytotoxicity and selectivity in the four isogenic cell lines (in words) [1]	cytotoxicity and selectivity in the four isogenic cell lines (in words) ([1]; listed as 4a)	CHK1 and CHK2 phosphorylation (in words) [2]	intracranial tumor growth by BLI (in words) [3]	activity in MGMT−/MMR (MSH2)+ tumors (in words) [4]	activity in MGMT−/MMR (MSH2)− tumors (in words) [4]
CNC(=O)c1ncn2c(=O)n(CCF)nnc12 [Compound I-1, 3-(2-fluoroethyl)-N-methyl-4-oxo-3H,4H-imidazo[4,3-d][1,2,3,5]tetrazine-8-carboxamide]	comparable to those for KL50 itself; also recorded: preferable toxicity for MGMT− cells compared to MGMT^+ cells, regardless of MMR status	–	–	–	–	–	–	–	–
NC(=O)c1ncn2c(=O)n(CCF)nnc12 [KL-50, 3-(2-fluoroethyl)-4-oxo-3H,4H-imidazo[4,3-d][1,2,3,5]tetrazine-8-carboxamide]	–	26.64	~25	preferable toxicity for MGMT− cells compared to MGMT^+ cells, regardless of MMR status	mirrored that of 4b	induced CHK1 and CHK2 phosphorylation in MGMT− cells regardless of MMR status	effective	comparable activity to TMZ	surprisingly effective
Cn1nnc2c(C(N)=O)ncn2c1=O [TMZ, temozolomide, reference compound]	–	less than one	–	–	–	only induced phospho-CHK1 and —CHK2 in MGMT−/MMR+ cells	only transiently suppressed tumor growth	–	ineffective
